In US12162861B2, “Dopamine D3 receptor selective antagonists/partial agonists; method of making; and use thereof” (THE UNITED STATES OF AMERICA, AS REPRESENTED BY THE …, priority 2016, dated 2024):

Columns and labels:
human D2R = molecular target: T1, human D2R (Homo sapiens, UniProt P14416); test: Radioligand competition binding, [3H]N-methylspiperone, D2R; details: Table 1A; ratio of Ki values
T1 construct: expressed in transfected cells; host or cells: HEK293
Experimental: Binding at dopamine D2-like receptors was determined using previously described methods. (Chen et al. “Tranylcypromine substituted cis-hydroxycyclobutylnaphthamides as potent and selective dopamine D(3) receptor antagonists.” J. Med. Chem. 2014, 57, 4962-4968) Membranes were prepared from HEK293 cells expressing human D2R, D3R or D4R, grown in a 50:50 mix of DMEM and Ham's F12 culture media, supplemented with 20 mM HEPES, 2 mM L-glutamine, 0.1 mM non-essential amino acids, 1× antibiotic/antimycotic, 10% heat-inactivated fetal bovine serum, and 200 μg/mL hygromycin (Life Technologies, Grand Island, NY) and kept in an incubator at 37° C. and 5% CO2. Upon reaching 80-90% confluence, cells were harvested using pre-mixed Earle's Balanced Salt Solution (EBSS) with 5 μM EDTA (Life Technologies) and centrifuged at 3000 rpm for 10 min at 21° C. The supernatant was removed and the pellet was resuspended in 10 mL hypotonic lysis buffer (5 mM MgCl2·6H2O, 5 mM Tris, pH 7.4 at 4° C.) and centrifuged at 20,000 rpm for 30 min at 4° C. The pellet was then resuspended in fresh EBSS buffer made from 8.7 g/L Earle's Balanced Salts without phenol red (US Biological, Salem, MA), 2.2 g/L sodium bicarbonate, pH to 7.4. A Bradford protein assay (Bio-Rad, Hercules, CA) was used to determine the protein concentration and membranes were diluted to 500 μg/mL and stored in a −80° C. freezer for later use.
(§1) Radioligand competition binding experiments were conducted using thawed membranes. Test compounds were freshly dissolved in 30% DMSO and 70% H2O to a stock concentration of 100 μM. To assist the solubilization of free-base compounds, 10 μl of glacial acetic acid was added along with the DMSO. Each test compound was then diluted into 13 half-log serial dilutions using 30% DMSO vehicle; final test concentrations ranged from 10 μM to 10 pM. Previously frozen membranes were diluted in fresh EBSS to a 100 μg/mL (for hD2R or hD3R) or 200 μg/mL (hD4R) stock for binding. Radioligand competition experiments were conducted in glass tubes containing 300 μl fresh EBSS buffer with 0.2 mM sodium metabisulfite, 50 μl of diluted test compound, 100 μl of membranes (10 μg total protein for hD2R or hD3R, 20 μg total protein for hD4R), and 50 μl of [^3H]N-methylspiperone (0.4 nM final concentration; Perkin Elmer). Nonspecific binding was determined using 10 μM butaclamol (Sigma-Aldrich, St. Louis, MO) and total binding was determined with 30% DMSO vehicle. All compound dilutions were tested in triplicate and the reaction incubated for one hour at room temperature. The reaction was terminated by filtration through Whatman GF/B filters, presoaked for one hour in 0.5% polyethylenimine, using a Brandel R48 filtering manifold (Brandel Instruments, Gaithersburg, MD). The filters were washed 3 times with 3 mL of ice cold EBSS buffer and transferred to scintillation vials. 3 mL CytoScint liquid scintillation cocktail (MP Biomedicals, Solon, OH) was added and vials were counted using a Perkin Elmer Tri-Carb 2910 TR liquid scintillation counter (Waltham, MA). IC50 values for each compound were determined from dose-response curves and Ki values were calculated using the Cheng-Prusoff equation; these analyses were performed using GraphPad Prism version 5.00 for Windows (GraphPad Software, San Diego, CA). Reported Ki values were determined from least three independent experiments.

human D3R = molecular target: T2, human D3R (Homo sapiens, UniProt P35462); test: Radioligand competition binding, [3H]N-methylspiperone, D3R; details: Table 1A; for D4/D3: ratio of Ki values; for D3R K ± SEM (nM): HEK 293 cells transfected with hD3R, [3H]N-methylspiperone
T2 construct: expressed in transfected cells; host or cells: HEK293
T2 sequence (P35462 whole entry): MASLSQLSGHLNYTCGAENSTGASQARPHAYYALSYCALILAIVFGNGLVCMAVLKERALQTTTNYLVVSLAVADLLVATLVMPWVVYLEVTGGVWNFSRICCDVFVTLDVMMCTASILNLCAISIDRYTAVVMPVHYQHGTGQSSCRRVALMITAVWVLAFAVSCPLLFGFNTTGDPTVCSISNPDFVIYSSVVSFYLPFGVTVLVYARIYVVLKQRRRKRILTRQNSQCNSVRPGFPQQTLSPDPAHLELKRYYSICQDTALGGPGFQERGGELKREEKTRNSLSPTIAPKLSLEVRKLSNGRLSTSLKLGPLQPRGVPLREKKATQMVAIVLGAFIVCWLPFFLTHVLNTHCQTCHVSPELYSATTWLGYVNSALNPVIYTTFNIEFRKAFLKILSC
Experimental: Binding at dopamine D2-like receptors was determined using previously described methods. […] Upon reaching 80-90% confluence, cells were harvested using pre-mixed Earle's Balanced Salt Solution (EBSS) with 5 μM EDTA (Life Technologies) and centrifuged at 3000 rpm for 10 min at 21° C. The supernatant was removed and the pellet was resuspended in 10 mL hypotonic lysis buffer (5 mM MgCl2·6H2O, 5 mM Tris, pH 7.4 at 4° C.) and centrifuged at 20,000 rpm for 30 min at 4° C. The pellet was then resuspended in fresh EBSS buffer made from 8.7 g/L Earle's Balanced Salts without phenol red (US Biological, Salem, MA), 2.2 g/L sodium bicarbonate, pH to 7.4. A Bradford protein assay (Bio-Rad, Hercules, CA) was used to determine the protein concentration and membranes were diluted to 500 μg/mL and stored in a −80° C. freezer for later use.
as §1, with “3 mL CytoScint liquid scintillation cocktail (MP Biomedicals, Solon, OH) was added and vials were counted using a Perkin Elmer Tri-Carb 2910 TR liquid scintillation counter (Waltham, MA).” left out

[1] = Sucrose self-administration; type: in vivo; details: pretreatment (±)-29 15 and 25 mg/kg, (±)-19 1 and 5 mg/kg
human dopamine D3R = molecular target: T3, human dopamine D3R (Homo sapiens, UniProt P35462); test: D3R mitogenesis assay in CHO cells; type: cell-based; details: stimulation of mitogenesis, CHO cells with human D3R; read-out: Agonist EC50 ± SEM
T3 construct: expressed in transfected cells; host or cells: CHO
T3 sequence (P35462 whole entry): as above

T1 sequence (P14416 whole entry): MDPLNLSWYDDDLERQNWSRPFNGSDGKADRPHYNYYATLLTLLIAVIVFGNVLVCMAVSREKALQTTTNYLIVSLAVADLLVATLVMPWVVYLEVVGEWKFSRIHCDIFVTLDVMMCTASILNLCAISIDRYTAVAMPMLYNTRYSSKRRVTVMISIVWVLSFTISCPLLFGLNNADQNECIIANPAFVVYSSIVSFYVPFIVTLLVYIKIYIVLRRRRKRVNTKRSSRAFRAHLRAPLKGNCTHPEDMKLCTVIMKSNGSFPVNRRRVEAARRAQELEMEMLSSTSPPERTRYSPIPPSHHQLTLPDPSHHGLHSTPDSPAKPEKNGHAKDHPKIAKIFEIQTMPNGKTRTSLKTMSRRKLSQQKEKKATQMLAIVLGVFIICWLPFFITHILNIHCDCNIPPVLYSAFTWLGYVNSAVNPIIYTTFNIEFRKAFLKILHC

SMILES | D4/D2 (human D2R) | D4/D3 (human D3R) | EC50 (human dopamine D3R) [µM] | D3R K ± SEM (nM) (human D3R) | sucrose self-administration [1]
CCc1cccc(N2CCN(CC(O)CCNC(=O)c3cc4ccccc4[nH]3)CC2)c1Cl (racemic) [Compound 19, N-(4-(4-(2-chloro-3-ethylphenyl)piperazin-1-yl)-3-hydroxybutyl)-1H-indole-2-carboxamide] | – | – | – | – | no significant effects on sucrose self-administration
CCc1cc(Cl)c(OC)c(N2CCN(CCCCNC(=O)c3cc4ccccc4[nH]3)CC2)c1 [Compound 28, N-(4-(4-(3-Chloro-5-ethyl-2-methoxyphenyl)piperazin-1-yl)butyl)-1H-indole-2-carboxamide] | 38 | 3065 | > 8.3 | – | –
CCc1cccc(N2CCN(CC(O)CCNC(=O)c3cc4ccccc4o3)CC2)c1Cl (stereo not drawn) [Compound 21, N-(4-(4-(2-Chloro-3-ethylphenyl)piperazin-1-yl)-3-hydroxybutyl)benzofuran-2-carboxamide] | 15 | 2417 | – | subnanomolar binding affinities | –
CCc1cccc(N2CCN(CCC(O)CNC(=O)c3cc4ccccc4[nH]3)CC2)c1Cl (stereo not drawn) [Compound 40, N-(4-(4-(2-Chloro-3-ethylphenyl)piperazin-1-yl)-2-hydroxybutyl)-1H-indole-2-carboxamide] | 44.7 | 1525 | – | – | –
CCc1cccc(N2CCN(C/C=C/CNC(=O)c3nc(C)c[nH]3)CC2)c1Cl [Compound 35, (E)-N-(4-(4-(2-Chloro-3-ethylphenyl)piperazin-1-yl)but-2-en-1-yl)-4-methyl-1H-imidazole-2-carboxamide] | 31.2 | 393 | – | – | –
CCc1cc(Cl)c(OC)c(N2CCN(CC(O)CCNC(=O)c3cc4ccccc4o3)CC2)c1 (stereo not drawn) [Compound 31, N-(4-(4-(3-Chloro-5-ethyl-2-methoxyphenyl)piperazin-1-yl)-3-hydroxybutyl)benzofuran-2-carboxamide] | 3.3 | 146 | – | – | –
CCc1cccc(N2CCN(CC(O)CCNC(=O)c3cn4ccccc4n3)CC2)c1Cl (stereo not drawn) [Compound 23, N-(4-(4-(2-Chloro-3-ethylphenyl)piperazin-1-yl)-3-hydroxybutyl)imidazo[1,2-a]pyridine-2-carboxamide] | 58.5 | 2671 | – | – | –
CCc1cc(Cl)c(OC)c(N2CCN(CCCCNC(=O)c3cc4ccccc4o3)CC2)c1 [Compound 30, N-(4-(4-(3-Chloro-5-ethyl-2-methoxyphenyl)piperazin-1-yl)butyl)benzofuran-2-carboxamide] | 5.2 | 224 | > 6.6 | – | –

Further lines, with some results ahead:

D4/D2 (human D2R) | D4/D3 (human D3R) | EC50 (human dopamine D3R) [µM] | D3R K ± SEM (nM) (human D3R) | SMILES | sucrose self-administration [1]
30.8 | 152 | – | – | CCc1cccc(N2CCN(CCCCNC(=O)c3c(C)nc4sccn34)CC2)c1Cl [Compound 24, N-(4-(4-(2-chloro-3-ethylphenyl)piperazin-1-yl)butyl)-6-methylimidazo[2,1-b]thiazole-5-carboxamide] | –
13.1 | 175 | – | – | CCc1cccc(N2CCN(CC(O)CCNC(=O)c3nc(C)c[nH]3)CC2)c1Cl (stereo not drawn) [Compound 27, N-(4-(4-(2-Chloro-3-ethylphenyl)piperazin-1-yl)-3-hydroxybutyl)-4-methyl-1H-imidazole-2-carboxamide] | –
56 | 2327 | – | subnanomolar binding affinities | CCc1cccc(N2CCN(CCCCNC(=O)c3cc4ccccc4o3)CC2)c1Cl [Compound 20, N-(4-(4-(2-Chloro-3-ethylphenyl)piperazin-1-yl)butyl)benzofuran-2-carboxamide] | –
145.2 | 2482 | – | – | CCc1cccc(N2CCN(CCCCNC(=O)c3cn4ccccc4n3)CC2)c1Cl [Compound 22, N-(4-(4-(2-chloro-3-ethylphenyl)piperazin-1-yl)butyl)imidazo[1,2-a]pyridine-2-carboxamide] | –
40.0 | 439 | – | – | CCc1c[nH]c(C(=O)NCCCCN2CCN(c3cccc(CC)c3Cl)CC2)n1 [Compound 25, N-(4-(4-(2-Chloro-3-ethylphenyl)piperazin-1-yl)butyl)-4-ethyl-1H-imidazole-2-carboxamide] | –
43.4 | 853 | – | – | CCc1cccc(N2CCN(CCCCNC(=O)c3nc(C)c[nH]3)CC2)c1Cl [Compound 26, N-(4-(4-(2-Chloro-3-ethylphenyl)piperazin-1-yl)butyl)-4-methyl-1H-imidazole-2-carboxamide] | –
61 | 2352 | – | – | CCc1cccc(N2CCN(CCCCNC(=O)c3cc4ccccc4[nH]3)CC2)c1Cl [Compound 18, N-(4-(4-(2-Chloro-3-ethylphenyl)piperazin-1-yl)butyl)-1H-indole-2-carboxamide] | –
